Here are results for one compound from paper PMC6757289, “Design and Characterization of SGK3-PROTAC1, an Isoform Specific SGK3 Kinase PROTAC Degrader” (ACS Chemical Biology, 2019).

Assay [1] has as its system phosphorylation of NDRG1 at Thr346. In words: NDRG1 phosphorylation in HEK293 cells, immunoblot. The format is cell-based. The following applies: HEK293, 8 h, 0.3 μM SGK3-PROTAC1, 1 μM 14H, 1 μM 308-R. How it is done:
Figure 3 Characterization of cellular activities of SGK3-PROTAC1 and cisSGK3-PROTAC1. (A) HEK293 cells were first treated for 8 h with 0.03–3 μM SGK3-PROTAC1 and cisSGK3-PROTAC1. One hour before lysis, cells were treated with 3 μM AZD5363. Lysates were subjected to immunoblot analysis with the indicated antibodies. […] Lysates were subjected to immunoblot analysis with the indicated antibodies. (C) HEK293 cells were treated for up to 48 h with SGK3-PROTAC1 (0.3 μM), and lysates were analyzed by immunoblot analysis using the indicated antibodies. (D) HEK293 cells were treated for 24 h with SGK3-PROTAC1. Cells were washed three times with DMEM to wash out the compound, and recovery of SGK3 expression protein was analyzed by immunoblot analysis. (E–G) As in A except that CAMA-1 (E), ZR-75-1 (F), and JIMT-1 (G) cells were employed rather than HEK293 cells.
To study the impact of SGK3-PROTAC1 on phosphorylation of a physiological substrate, we monitored phosphorylation of NDRG1 at Thr346.[37] This site is also phosphorylated by Akt; therefore we treated cells with increasing doses of SGK3-PROTAC1 and cisSGK3-PROTAC1 for 8 h, with the addition of an Akt inhibitor (3 μM AZD5363) 1 h before lysis, to remove the impact of Akt phosphorylation of NDRG1. […] Concentrations of cisSGK3-PROTAC1 of above 1 μM were required to lower NDRG1 phosphorylation. […] This is consistent with previous work in HEK293 cells showing that inhibition of both Akt and SGK3 is required to block NDRG1 phosphorylation.[8],[37]
All cell treatments were carried out as described in figure legends, to a final DMSO concentration of 0.1% (v/v). Lysates were quantified. Immunoblotting was performed using standard procedures, described in brief below. Lysate concentration was quantified by Bradford Assay, and 10 μg of lysate was loaded in the LDS sample buffer for SDS-PAGE electrophoresis on Novex 4–12% Bis–Tris gels. Proteins were electrophoretically transferred onto nitrocellulose membranes (Amersham Protran 0.45 μm NC; GE Healthcare) at 80 V for 80 min on ice in transfer buffer. Transferred membranes were blocked with 5% (w/v) nonfat dry milk dissolved in TBS-T [20 mM Tris/HCl, pH 7.5, 150 mM NaCl, and 0.1% (v/v) Tween 20] at RT for 30 min, before incubation with the primary antibody overnight at 4 °C. The signal was produced with near-infrared secondary antibodies and detected using a Licor Biosciences Odyssey System, and the signal was quantified in Image Studio Lite.
(A western blot detects proteins with antibodies after separation by electrophoresis.)

The next assay deals with CAMA-1 cells. In words: Cell growth (confluency, Incucyte S3). It counts as cell-based. As to conditions: CAMA-1; 1 μM GDC0941 or AZD5363; SGK3-PROTAC1/cisSGK3-PROTAC1 0.3 μM, 14H 3 μM. How it is done: (§1) Figure 6 SGK3-PROTAC1-mediated degradation of SGK3 further inhibiting the growth of cancer cell lines treated with PI3K-Akt pathway inhibitors. CAMA-1 (A, C) and ZR-75-1 (B, D) were treated with compounds as indicated either as monotherapy or in combination, and confluency was measured on the Incucyte S3 every 4 h for up to 4 weeks.
(§2) For growth assays, ZR-75-1 cells were seeded in 96-well plates at a density of 6000 cells/well and left to adhere overnight. Cells were then treated with compounds as described in the figure legends and imaged every 4 h on the Incucyte S3 (Essen Bioscience) for up to 4 weeks to give a measure of cell confluency. Media were refreshed every 4–5 days.
(§3) Supplementary Figure S3. SGK3-PROTAC compounds have no effect on cell growth. CAMA-1 and ZR-75-1
(§4) confluency was m easured every 4 h on Incucyte S3.
(§5) (1 picture or pasted object on this page, not shown here)

The subject of another assay is ZR-75-1 cells. The assay can be described thus: Cell growth (confluency, Incucyte S3). The following applies: ZR-75-1; 1 μM GDC0941 or AZD5363; SGK3-PROTAC1/cisSGK3-PROTAC1 0.3 μM, 14H 3 μM. It counts as cell-based. How it is done: as §1, §2, §3, §4, §5
The target of another assay is T1, SGK3 (Homo sapiens, UniProt Q96BR1).
T1 sequence (Q96BR1 1-496): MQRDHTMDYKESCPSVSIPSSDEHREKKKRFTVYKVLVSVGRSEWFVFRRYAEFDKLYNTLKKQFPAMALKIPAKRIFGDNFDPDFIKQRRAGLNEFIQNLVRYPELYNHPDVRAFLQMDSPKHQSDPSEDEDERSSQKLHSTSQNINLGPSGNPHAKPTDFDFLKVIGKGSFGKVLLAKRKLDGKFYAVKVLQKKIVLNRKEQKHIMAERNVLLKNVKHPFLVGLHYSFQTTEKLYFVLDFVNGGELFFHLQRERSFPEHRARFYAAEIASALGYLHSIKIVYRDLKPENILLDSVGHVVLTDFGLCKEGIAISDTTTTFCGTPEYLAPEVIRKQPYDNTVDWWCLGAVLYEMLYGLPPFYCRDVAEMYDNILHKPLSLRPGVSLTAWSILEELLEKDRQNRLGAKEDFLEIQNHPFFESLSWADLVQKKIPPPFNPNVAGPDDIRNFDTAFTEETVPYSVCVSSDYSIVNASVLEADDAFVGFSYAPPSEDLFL
Also on record: method as in PMID 27481935. The following applies: cited from earlier work.

The next assay deals with T2, SGK1 (Homo sapiens, UniProt O00141, S422D).
T2 sequence (O00141 60-431 S422D limits assumed): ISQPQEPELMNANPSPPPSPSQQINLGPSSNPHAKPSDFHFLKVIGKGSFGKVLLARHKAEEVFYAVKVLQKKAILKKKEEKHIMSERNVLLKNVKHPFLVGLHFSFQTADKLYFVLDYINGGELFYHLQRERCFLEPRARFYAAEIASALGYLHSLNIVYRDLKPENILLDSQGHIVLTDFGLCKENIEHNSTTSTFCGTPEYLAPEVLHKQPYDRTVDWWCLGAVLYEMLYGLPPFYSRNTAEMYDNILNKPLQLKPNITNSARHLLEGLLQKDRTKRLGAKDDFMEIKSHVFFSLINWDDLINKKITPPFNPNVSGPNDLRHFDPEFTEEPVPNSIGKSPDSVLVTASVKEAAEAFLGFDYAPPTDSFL
Details: method as in PMID 27481935. As to conditions: cited from earlier work.

A further assay has as its target S6K1 (Homo sapiens, UniProt P23443, T412E). Details: method as in PMID 27481935. The following applies: cited from earlier work.

Chain of S6K1 (P23443 1-421 T412E limits assumed): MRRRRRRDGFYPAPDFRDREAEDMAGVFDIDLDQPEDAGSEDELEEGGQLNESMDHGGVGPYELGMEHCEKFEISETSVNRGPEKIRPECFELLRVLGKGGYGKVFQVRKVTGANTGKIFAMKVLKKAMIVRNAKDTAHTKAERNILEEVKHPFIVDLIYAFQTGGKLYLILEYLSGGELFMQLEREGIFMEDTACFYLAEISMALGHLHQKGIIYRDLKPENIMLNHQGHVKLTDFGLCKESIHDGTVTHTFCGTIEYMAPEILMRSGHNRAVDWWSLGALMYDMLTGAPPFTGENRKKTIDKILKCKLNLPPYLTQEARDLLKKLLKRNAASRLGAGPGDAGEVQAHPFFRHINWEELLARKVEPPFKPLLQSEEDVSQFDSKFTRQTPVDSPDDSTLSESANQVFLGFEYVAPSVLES

As usually defined, the IC50 is the concentration that gives 50% inhibition. In the case of `Nc1n[nH]c2nc(-c3ccc(NS(=O)(=O)c4cc(Cl)ccc4Cl)cc3)ncc12` [14H, reference compound], in assay [1] (basal, no inhibition of Akt), the pNDRG1 phosphorylation result is on record as “minimal effect”. In addition, the NDRG1 phosphorylation entry in assay [1] (in the presence of 3 μM AZD5363) is “markedly suppressed”. The “growth in combination with GDC0941 or AZD5363” value with CAMA-1 cells and with ZR-75-1 cells was “further suppressed cell growth” each time. Further, the IC50 is 4 nM on SGK3, 10 nM on SGK1 and 76 nM on S6K1.
